From patent US20200308171A1, “BIFUNCTIONAL INHIBITORS WITH EGFR HAVING A E3 UBIQUITIN LIGASE MOIETY” (Hoffmann-La Roche Inc., priority 2017, published 2020) come the findings set out here.

Structures can show the parent of a compound that is named as a salt.

T1 sequence (P00533 25-1210 T790M/C797S/L858R): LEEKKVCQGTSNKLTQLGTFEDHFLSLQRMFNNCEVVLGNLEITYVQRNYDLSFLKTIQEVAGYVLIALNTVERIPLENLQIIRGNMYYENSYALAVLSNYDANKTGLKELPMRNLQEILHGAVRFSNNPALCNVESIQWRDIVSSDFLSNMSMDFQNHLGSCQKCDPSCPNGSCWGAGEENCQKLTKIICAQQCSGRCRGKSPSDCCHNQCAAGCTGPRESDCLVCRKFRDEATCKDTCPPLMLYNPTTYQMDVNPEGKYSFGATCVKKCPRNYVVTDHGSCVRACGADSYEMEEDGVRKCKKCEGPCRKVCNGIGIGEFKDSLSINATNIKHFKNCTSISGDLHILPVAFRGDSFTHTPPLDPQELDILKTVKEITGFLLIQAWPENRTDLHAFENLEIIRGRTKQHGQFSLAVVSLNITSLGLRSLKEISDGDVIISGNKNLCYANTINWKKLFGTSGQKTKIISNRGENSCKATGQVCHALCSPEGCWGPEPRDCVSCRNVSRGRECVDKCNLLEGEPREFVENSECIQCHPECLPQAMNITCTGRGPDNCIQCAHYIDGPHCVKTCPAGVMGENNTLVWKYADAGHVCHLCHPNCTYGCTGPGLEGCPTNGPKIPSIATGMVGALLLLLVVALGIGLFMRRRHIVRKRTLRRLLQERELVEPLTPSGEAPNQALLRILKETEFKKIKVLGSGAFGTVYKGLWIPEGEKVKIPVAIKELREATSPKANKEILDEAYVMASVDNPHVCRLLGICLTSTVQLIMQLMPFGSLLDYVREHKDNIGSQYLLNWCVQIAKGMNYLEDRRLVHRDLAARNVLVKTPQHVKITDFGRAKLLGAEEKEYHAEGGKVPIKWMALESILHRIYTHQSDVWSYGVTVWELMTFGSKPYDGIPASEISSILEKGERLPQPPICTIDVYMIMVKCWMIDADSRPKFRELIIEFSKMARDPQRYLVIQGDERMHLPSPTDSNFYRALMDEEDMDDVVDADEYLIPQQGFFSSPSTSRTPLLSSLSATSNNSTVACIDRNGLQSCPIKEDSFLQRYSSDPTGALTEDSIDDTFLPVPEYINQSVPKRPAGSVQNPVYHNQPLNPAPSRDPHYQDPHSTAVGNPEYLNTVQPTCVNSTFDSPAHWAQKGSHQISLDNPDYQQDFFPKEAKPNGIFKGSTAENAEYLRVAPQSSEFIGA

The assay addresses T1, EGFR T790M/L858R/C797S (Homo sapiens, UniProt P00533, C797S/L858R/T790M).
T1 construct: expressed in transfected cells; host or cells: BaF3 (murine pro-B) cells stably transduced with pCDH lentiviral vector, PGK promoter
Nature of the assay: EGFR Degradation Assay (Cellular), FRET quantification of total EGFR. The note with it: BaF3 EGFR mutant cell line (EGFR T790M/L858R/C797S); 4-hour incubation; total EGFR FRET kit; top concentration 1 μM, 11 points; read-out: IC50 [nM] mutant EGFR degradation. It counts as cell-based. The method, then: EGFR Degradation Assay (Cellular)
The BaF3 parental line was purchased from DSMZ and grown in RPMI media supplemented with 10% FBS and 10 ng/mL interleukin 3 (IL-3) (Thermo Fisher Scientific). EGFR mutants ([…]) were cloned into the pCDH lentiviral vector (SystemBio) under the control of a PGK promoter and confirmed by DNA sequencing. The resulting gene expression vector for each mutant was mixed with packaging vectors and cotransfected into 2×10E6 HEK293T cells (ATCC) in 10 mL of DMEM media to generate lentiviral particles according to the manufacturers protocol (Origene).
Three days post-transfection, the viral supernatant was harvested and filtered. In one well of a 12-well plate, 0.5 mL of viral supernatant was added to 2E6 Ba/F3 cells contained in 1.5 mL of RPMI media including 10% FBS, 10 ng/mL IL-3, and 5 μg/mL polybrene (Invitrogen). The plate was centrifuged at 2,000 rpm for 1 hour at room temperature and infected cells were kept in a tissue culture incubator overnight at 37° C. The cells were washed once in fresh BaF3 media and reseeded at 0.5E6 cells/well of a 12-well plate in media supplemented with 0.5 μg/mL puromycin. The cells were maintained in this media for 3 weeks. IL-3-independent, EGFR mutant transformed cells were routinely maintained in RPMI medium supplemented with 10% FBS.
RPMI 1640 no-phenol red medium and fetal bovine serum (FBS) were purchased from Gibco (Grand Island, N.Y., USA). EGFR total kit and EGFR phospho-Y1068 kit were purchased from Cisbio (Bedford, Mass., USA). BaF3 EGFR mutant cell lines (EGFR T790M/L858R/C797S) cell line was generated in house, according to the protocol reported above. Cell culture flasks and 384-well microplates were acquired from VWR (Radnor, Pa., USA).
EGFR degradation was determined based on quantification of FRET signal using EGFR total kit. The FRET signal detected correlates with total EGFR protein level in cells. Briefly, test compounds were added to the 384-well plate from a top concentration of 1 μM with 11 points, half log titration in quadruplicates. Then, BaF3 EGFR mutant cell lines (EGFR T790M/L858R/C797S) were added into 384-well plates at a cell density of 10000 cells per well. The plates were kept at 37° C. with 5% CO2 for 4 hours. After 4-hour incubation, 4× lysis buffer was added to the cells, and then microplate was agitated on plate shaker at 500 rpm for 30 minutes at room temperature. Next, total EGFR antibody solution was added to the cells and the cells were incubated for another 4 hours at room temperature. Finally, FRET signal was acquired on EnVision™ Multilabel Reader (PerkinElmer, Santa Clara, Calif., USA). The cells treated in the absence of the test compound were the negative control and lysis buffer with antibody solution only were the positive control.
As to `CO[C@H]1CCN(c2nccc(Nc3cc4c(cn3)c(C(=O)NC3CCN(CCCCNc5cccc6c5C(=O)N(C5CCC(=O)NC5=O)C6=O)CC3)cn4C(C)C)n2)C[C@H]1F` (mixture of isomers) [Example 14, N-[1-[4-[[2-[(3RS)-2,6-Dioxo-3-piperidyl]-1,3-dioxo-isoindolin-4-yl]amino]butyl]-4-piperidyl]-6-[[2-[(3R,4S)-3-fluoro-4-methoxy-1-piperidyl]pyrimidin-4-yl]amino]-1-isopropyl-pyrrolo[3,2-c]pyridine-3-carboxamide], the DC50 was determined as 41 nM.

With `CO[C@H]1CCN(c2nccc(Nc3cc4c(cn3)c(C(=O)NC3CCN(CCCOC5CCN(c6cccc7c6C(=O)N(C6CCC(=O)NC6=O)C7=O)CC5)CC3)cn4C3CCCC3)n2)C[C@H]1F` (single isomer, unassigned) [Example 18], the DC50 turned out to be 45 nM.

Take `CO[C@H]1CCN(c2nccc(Nc3cc4c(cn3)c(C(=O)NC3CCN(CCCOC5CN(c6cccc7c6C(=O)N(C6CCC(=O)NC6=O)C7=O)C5)CC3)cn4C(C)C)n2)C[C@H]1F` (mixture of isomers) [Example 22, N-[1-[3-[1-[2-[(3RS)-2,6-Dioxo-3-piperidyl]-1,3-dioxo-isoindolin-4-yl]azetidin-3-yl]oxypropyl]-4-piperidyl]-6-[[2-[(3R,4S)-3-fluoro-4-methoxy-l-piperidyl]pyrimidin-4-yl]amino]-1-isopropyl-pyrrolo[3,2-c]pyridine-3-carboxamide]: the DC50 stood at 26 nM.

As to `CO[C@H]1CCN(c2nccc(Nc3cc4c(cn3)c(C(=O)NC3CCN(CCCC5CCN(c6cccc7c6C(=O)N(C6CCC(=O)NC6=O)C7=O)CC5)CC3)cn4C(C)C)n2)C[C@H]1F` (mixture of isomers) [Example 12, N-[1-[3-[1-[2-[(3RS)-2,6-Dioxo-3-piperidyl]-1,3-dioxo-isoindolin-4-yl]-4-piperidyl]propyl]-4-piperidyl]-6-[[2-[(3R,4S)(3S,4R)-3-fluoro-4-methoxy-1-piperidyl]pyrimidin-4-yl]amino]-1-isopropyl-pyrrolo[3,2-c]pyridine-3-carboxamide trifluoroacetate], the DC50 is 69 nM.

Turning to `CO[C@H]1CCN(c2nccc(Nc3cc4c(cn3)c(C(=O)NC3CCN(CCCCCCNc5cccc6c5C(=O)N(C5CCC(=O)NC5=O)C6=O)CC3)cn4C(C)C)n2)C[C@H]1F` (mixture of isomers) [Example 5, N-[1-[6-[[2-[(3RS)-2,6-Dioxo-3-piperidyl]-1,3-dioxo-isoindolin-4-yl]amino]hexyl]-4-piperidyl]-6-[[2-[(3R,4S)(3S,4R)-3-fluoro-4-methoxy-1-piperidyl]pyrimidin-4-yl]amino]-1-isopropyl-pyrrolo[3,2-c]pyridine-3-carboxamide], the DC50 came to 28 nM.

`CO[C@H]1CCN(c2nccc(Nc3cc4c(cn3)c(C(=O)NC3CCN(CCC5CCN(c6ccc7c(c6)C(=O)N(C6CCC(=O)NC6=O)C7=O)CC5)CC3)cn4C(C)C)n2)C[C@H]1F` (mixture of isomers) [Example 16, N-[1-[2-[1-[2-[(3RS)-2,6-Dioxo-3-piperidyl]-1,3-dioxo-isoindolin-5-yl]-4-piperidyl]ethyl]-4-piperidyl]-6-[[2-[(3R,4S)-3-fluoro-4-methoxy-1-piperidyl]pyrimidin-4-yl]amino]-1-isopropyl-pyrrolo[3,2-c]pyridine-3-carboxamide]: the DC50 came out at 28 nM.

Consider `CO[C@H]1CCN(c2nccc(Nc3cc4c(cn3)c(C(=O)NC3CCN(C(=O)N5CCN(CCCCNc6cccc7c6C(=O)N(C6CCC(=O)NC6=O)C7=O)CC5)CC3)cn4C3CCCC3)n2)C[C@H]1F` (mixture of isomers) [Example 13, 1-Cyclopentyl-N-[1-[4-[4-[[2-[(3RS)-2,6-dioxo-3-piperidyl]-1,3-dioxo-isoindolin-4-yl]amino]butyl]piperazine-1-carbonyl]-4-piperidyl]-6-[[2-[(3R,4S)-3-fluoro-4-methoxy-1-piperidyl]pyrimidin-4-yl]amino]pyrrolo[3,2-c]pyridine-3-carboxamide], for which the DC50 amounted to 30 nM.
